Data from patent publication US5710174A, “Factor XIIIA inhibitor” (Zymo Genetics, Inc., priority 1995, dated 1998).

Target: T1, papain (Carica papaya, UniProt P00784)
T1 construct: purchased Boehringer Mannheim
T1 sequence (P00784 134-345): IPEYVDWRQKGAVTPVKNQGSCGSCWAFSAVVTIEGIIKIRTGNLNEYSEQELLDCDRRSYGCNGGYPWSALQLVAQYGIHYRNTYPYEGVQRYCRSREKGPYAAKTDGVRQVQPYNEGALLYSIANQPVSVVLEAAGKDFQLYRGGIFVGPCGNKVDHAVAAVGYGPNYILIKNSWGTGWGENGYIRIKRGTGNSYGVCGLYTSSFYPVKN
Test: Papain inhibition assay
Format: biochemical
Details: for Papain inhibition (result in words, IC50 table): 100 μM to 10 nM, 30 min at 37° C.
Protocol: For the papain inhibition assay, a buffer containing 0.1M NaPO4 and 2.5 mM EDTA at about pH 7.0 was used. An Azocoll™ solution was prepared by adding 5 mg Azocoll™ (Calbiochem; an insoluble, powdered cowhide to which a bright red dye is attached (azo-dye-bound collagen)) to the buffer while stirring. The Azocoll was prewarmed to about 37° C. 10 μl of 0.1M L-cysteine, 10 μl of 50 μg/ml papain (Boehringer Mannheim), 0.5 ml of Azocoll solution, and 50 μl of one of a series of concentrations of ZG-1400a, iodoacetamide, iodoacetic acid, cerulenin, or 50 μl of the DMSO or ethanol negative controls were added to duplicate 13×75 mm glass tubes. The ZG-1400a, iodoacetamide, and iodoacetic acid were individually prepared in 10% DMSO and tested using half-log dilutions, starting at a final assay concentration of 100 μM and diluting to 10 nM. Cerulenin was prepared in 10% ethanol and tested using half-log dilutions, starting at a final assay concentration of 100 μM and diluting to 10 nM. A negative (no inhibition) control for ZG-1400a, iodoacetamide and iodoacetic acid was 50 μl of 10% DMSO to give a final assay concentration of 1% DMSO in each control tube. A negative control for cerulenin was 50 μl of 10% ethanol to give a final assay concentration of 1% ethanol in each control tube. The test and control tubes then were incubated for 30 min at 37° C. in an agitated water bath.
After incubation, all of the tubes were centrifuged at 2000 RPM for 5 min. The supernatant was removed and its absorbance was read at 520 nm on a Beckman DU640 spectrophotometer to determine the amount of papain inhibition.

Structure (SMILES) | IC50 [nM] | Papain inhibition (result in words, IC50 table) | Papain inhibition (result in words, IC50 table) (listed as cerulenin) | Papain inhibition (result in words, IC50 table) (listed as ZG-1400a) | Papain inhibition (result in words, IC50 table) (listed as ZG-1440)
NC(=O)CI [Iodoacetamide, iodoacetamide] | 10 | did cause inhibition |  |  | 
CC=CCC=CCCC(=O)C1OC1C(N)=O (stereo not drawn) [Cerulenin, 2,3-epoxy-4-oxo-7,10-dodecadienamide] |  | No inhibition | did not inhibit papain activity |  | 
C[C@@H]1CCC/C=C\C(=O)Cc2cc(O)cc(O)c2C(=O)O1 [ZG-1400, R(-) enantiomer of cis-resorcylide] |  |  |  | did not inhibit papain activity | No inhibition
